Data on 2 compounds can be found in patent US20080248486A1, “Type Pept1 Protein Assay” (Iongate Biosciences GmbH, priority 2004, published 2008).

One series concerns peptide transporter. As to conditions: Meredith et al. 1998; cited from earlier work.
Series [1] concerns the target T1, PepT1 (Homo sapiens, UniProt P46059).
T1 sequence (P46059 1-708): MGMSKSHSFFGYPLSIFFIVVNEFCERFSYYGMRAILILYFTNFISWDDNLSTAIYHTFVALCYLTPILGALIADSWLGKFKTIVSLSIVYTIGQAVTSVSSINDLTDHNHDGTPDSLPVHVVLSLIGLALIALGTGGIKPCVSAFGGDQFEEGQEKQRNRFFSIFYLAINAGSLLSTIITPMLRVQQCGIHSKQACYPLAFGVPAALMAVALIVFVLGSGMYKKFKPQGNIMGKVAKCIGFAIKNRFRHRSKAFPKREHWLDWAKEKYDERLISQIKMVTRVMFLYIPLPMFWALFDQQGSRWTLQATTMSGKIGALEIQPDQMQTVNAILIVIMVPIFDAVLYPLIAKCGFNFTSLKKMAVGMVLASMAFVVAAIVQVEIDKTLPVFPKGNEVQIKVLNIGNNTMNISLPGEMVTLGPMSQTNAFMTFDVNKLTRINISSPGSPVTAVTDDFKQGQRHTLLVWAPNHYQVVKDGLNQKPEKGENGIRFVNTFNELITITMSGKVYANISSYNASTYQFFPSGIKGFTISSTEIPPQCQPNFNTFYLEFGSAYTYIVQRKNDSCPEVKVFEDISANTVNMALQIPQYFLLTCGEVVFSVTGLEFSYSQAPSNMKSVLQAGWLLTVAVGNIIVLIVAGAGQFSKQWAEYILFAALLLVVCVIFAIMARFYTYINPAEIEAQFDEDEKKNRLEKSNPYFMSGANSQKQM
The series can be described thus: Activity measurement with glibenclamide on protein-loaded sensor chip (SurfE2R system), current amplitude on change from non-activating to activating solution. It is filed as biochemical. Also noted: expressed in transfected cells; host or cells: CHO cells (plasma membrane preparation). The conditions noted are these: 100 μM glibenclamide in both activating and non-activating solution; CHO plasma membrane preparation on sensor chip; FIG. 1. The method, then:
The measurements were carried out as above, although both solutions contained activating and non-activating solution and additionally 100 μM glibenclamide.

A short description of series [2]: Solubility of glibenclamide. It is filed as physicochemical.
The target of series [3] is T1, PepT1. Also on record: host or cells: oocytes. As to conditions: oocytes; cited from earlier work.

Each structure is given as a SMILES string.

For the compound `NCc1ccc(C(=O)O)cc1` [4-aminomethyl benzoic acid], the “Affinity to the transporter” value in the series with peptide transporter is reported as “only a slight affinity”.

One may read the IC50 as the point on the concentration scale where inhibition reaches its midpoint. On to `COc1ccc(Cl)cc1C(=O)NCCc1ccc(S(=O)(=O)NC(=O)NC2CCCCC2)cc1` [glibenclamide], for which the “Effect on current amplitude (PepT1 transport current I(t))” value at PepT1 [1] is reported as “inhibition of the current amplitude”. In addition, the Solubility result in series [2] was “poor solubility”. Besides, at PepT1 [3], the IC50 is about 100 µM.
